Measurements reported in the supplement of paper PMC10307832.

Legend:
Assay in all cases: relative viability (nuclei count vs DMSO), 5 days (fraction); higher = more cells survive
LOU-NH91 = system: LOU-NH91
Method in brief: (§1)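 Each reported value is a median over duplicate plates. It expresses relative viability: treated-well nuclei count divided by vehicle-well nuclei count. Lung cancer cell lines in 1536-well plates were dosed by pin tool a day after seeding, alone with one drug or with a fixed anchor-drug dose plus five library-drug doses (not always all listed) in √10 steps, and nuclei were counted after 5 days.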

NCI-H23 = system: NCI-H23
Method in brief: as §1

SK-LU-1 = system: SK-LU-1
Method in brief: as §1

NCI-H2023 = system: NCI-H2023
Method in brief: as §1

PC-3 [JPC-3] = system: PC-3 [JPC-3]
Method in brief: as §1

NCI-H460 = system: NCI-H460
Method in brief: as §1

LCLC-97TM1 = system: LCLC-97TM1
Method in brief: as §1

NCI-H1915 = system: NCI-H1915
Method in brief: as §1

NCI-H2342 = system: NCI-H2342
Method in brief: as §1

NCI-H2170 = system: NCI-H2170
Method in brief: as §1

NCI-H2126 = system: NCI-H2126
Method in brief: as §1

NCI-H1793 = system: NCI-H1793
Method in brief: as §1

LXF-289 = system: LXF-289
Method in brief: as §1

NCI-H441 = system: NCI-H441
Method in brief: as §1

BEN = system: BEN
Method in brief: as §1

LU99A = system: LU99A
Method in brief: as §1

NCI-H1666 = system: NCI-H1666
Method in brief: as §1

A-427 = system: A-427
Method in brief: as §1

HARA = system: HARA
Method in brief: as §1

NCI-H1395 = system: NCI-H1395
Method in brief: as §1

NCI-H322M = system: NCI-H322M
Method in brief: as §1

With COCC1(CO)C(=O)C2CCN1CC2 (centres undefined) [PRIMA-1MET] + CC(=O)c1c(C)c2cnc(Nc3ccc(N4CCNCC4)cn3)nc2n(C2CCCC2)c1=O [Palbociclib] (partner 0.5 µM) the relative viability (LOU-NH91; first compound 0.2 µM) was 0.507, the relative viability (LOU-NH91; first compound 0.6325 µM) was 0.514 and the relative viability (LOU-NH91; first compound 2 µM) was 0.54. The relative viability (LOU-NH91; first compound 6.325 µM) was 0.508, the relative viability (LOU-NH91; first compound 20 µM) was 0.452 and the relative viability (NCI-H23; first compound 0.2 µM) was 0.469. The relative viability (NCI-H23; first compound 0.6325 µM) was 0.351, the relative viability (NCI-H23; first compound 2 µM) was 0.416 and the relative viability (NCI-H23; first compound 6.325 µM) was 0.538. The relative viability (NCI-H23; first compound 20 µM) was 0.121, the relative viability (SK-LU-1; first compound 0.2 µM) was 0.395 and the relative viability (SK-LU-1; first compound 0.6325 µM) was 0.385. It also gave a relative viability (SK-LU-1; first compound 2 µM) of 0.255, a relative viability (SK-LU-1; first compound 6.325 µM) of 0.376 and a relative viability (SK-LU-1; first compound 20 µM) of 0.32. For the same compound, the relative viability (NCI-H2023; first compound 0.2 µM) was 0.352, the relative viability (NCI-H2023; first compound 0.6325 µM) was 0.379 and the relative viability (NCI-H2023; first compound 2 µM) was 0.422. It also gave a relative viability (NCI-H2023; first compound 6.325 µM) of 0.365, a relative viability (NCI-H2023; first compound 20 µM) of 0.295 and a relative viability (PC-3 [JPC-3]; first compound 0.2 µM) of 0.597. The relative viability (PC-3 [JPC-3]; first compound 0.6325 µM) was 0.608, the relative viability (PC-3 [JPC-3]; first compound 2 µM) was 0.573 and the relative viability (PC-3 [JPC-3]; first compound 6.325 µM) was 0.574. The relative viability (PC-3 [JPC-3]; first compound 20 µM) was 0.521, the relative viability (NCI-H460; first compound 0.2 µM) was 0.153 and the relative viability (NCI-H460; first compound 0.6325 µM) was 0.139. It also gave a relative viability (NCI-H460; first compound 2 µM) of 0.168, a relative viability (NCI-H460; first compound 6.325 µM) of 0.114 and a relative viability (NCI-H460; first compound 20 µM) of 0.0061. It also gave a relative viability (LCLC-97TM1; first compound 0.2 µM) of 0.215, a relative viability (LCLC-97TM1; first compound 0.6325 µM) of 0.192 and a relative viability (LCLC-97TM1; first compound 2 µM) of 0.193. The relative viability (LCLC-97TM1; first compound 6.325 µM) was 0.264, the relative viability (LCLC-97TM1; first compound 20 µM) was 0.206 and the relative viability (NCI-H1915; first compound 0.2 µM) was 0.507. The relative viability (NCI-H1915; first compound 0.6325 µM) was 0.496, the relative viability (NCI-H1915; first compound 2 µM) was 0.451 and the relative viability (NCI-H1915; first compound 6.325 µM) was 0.518. It also gave a relative viability (NCI-H1915; first compound 20 µM) of 0.523, a relative viability (NCI-H2342; first compound 0.2 µM) of 0.602 and a relative viability (NCI-H2342; first compound 0.6325 µM) of 0.452. For the same compound, the relative viability (NCI-H2342; first compound 6.325 µM) was 0.535, the relative viability (NCI-H2342; first compound 20 µM) was 0.463 and the relative viability (NCI-H2170; first compound 0.2 µM) was 0.422. For the same compound, the relative viability (NCI-H2170; first compound 0.6325 µM) was 0.36, the relative viability (NCI-H2170; first compound 2 µM) was 0.391 and the relative viability (NCI-H2170; first compound 6.325 µM) was 0.449. The relative viability (NCI-H2170; first compound 20 µM) was 0.379, the relative viability (NCI-H2126; first compound 0.2 µM) was 0.335 and the relative viability (NCI-H2126; first compound 0.6325 µM) was 0.336. The relative viability (NCI-H2126; first compound 2 µM) was 0.321, the relative viability (NCI-H2126; first compound 6.325 µM) was 0.372 and the relative viability (NCI-H2126; first compound 20 µM) was 0.326. It also gave a relative viability (NCI-H1793; first compound 0.2 µM) of 0.326, a relative viability (NCI-H1793; first compound 0.6325 µM) of 0.32 and a relative viability (NCI-H1793; first compound 6.325 µM) of 0.332. For the same compound, the relative viability (NCI-H1793; first compound 20 µM) was 0.331, the relative viability (LXF-289; first compound 0.2 µM) was 0.642 and the relative viability (LXF-289; first compound 0.6325 µM) was 0.662. The relative viability (LXF-289; first compound 2 µM) was 0.734, the relative viability (LXF-289; first compound 6.325 µM) was 0.594 and the relative viability (LXF-289; first compound 20 µM) was 0.602. For the same compound, the relative viability (NCI-H441; first compound 0.2 µM) was 0.221, the relative viability (NCI-H441; first compound 0.6325 µM) was 0.227 and the relative viability (NCI-H441; first compound 2 µM) was 0.192. For the same compound, the relative viability (NCI-H441; first compound 6.325 µM) was 0.201, the relative viability (NCI-H441; first compound 20 µM) was 0.205 and the relative viability (BEN; first compound 0.2 µM) was 0.46. It also gave a relative viability (BEN; first compound 0.6325 µM) of 0.463, a relative viability (BEN; first compound 6.325 µM) of 0.463 and a relative viability (BEN; first compound 20 µM) of 0.437. It also gave a relative viability (LU99A; first compound 0.2 µM) of 0.43, a relative viability (LU99A; first compound 0.6325 µM) of 0.414 and a relative viability (LU99A; first compound 2 µM) of 0.414. It also gave a relative viability (LU99A; first compound 6.325 µM) of 0.349, a relative viability (LU99A; first compound 20 µM) of 0.225 and a relative viability (NCI-H1666; first compound 0.2 µM) of 0.69. It also gave a relative viability (NCI-H1666; first compound 0.6325 µM) of 0.647, a relative viability (NCI-H1666; first compound 2 µM) of 0.614 and a relative viability (NCI-H1666; first compound 6.325 µM) of 0.699. It also gave a relative viability (NCI-H1666; first compound 20 µM) of 0.695, a relative viability (A-427; first compound 0.2 µM) of 0.574 and a relative viability (A-427; first compound 0.6325 µM) of 0.523. It also gave a relative viability (A-427; first compound 2 µM) of 0.576, a relative viability (A-427; first compound 6.325 µM) of 0.49 and a relative viability (A-427; first compound 20 µM) of 0.525. The relative viability (HARA; first compound 0.2 µM) was 0.252, the relative viability (HARA; first compound 0.6325 µM) was 0.318 and the relative viability (HARA; first compound 6.325 µM) was 0.286. The relative viability (HARA; first compound 20 µM) was 0.261, the relative viability (NCI-H1395; first compound 0.2 µM) was 0.665 and the relative viability (NCI-H1395; first compound 2 µM) was 0.641. The relative viability (NCI-H1395; first compound 6.325 µM) was 0.656, the relative viability (NCI-H1395; first compound 20 µM) was 0.578 and the relative viability (NCI-H322M; first compound 0.2 µM) was 0.535. The relative viability (NCI-H322M; first compound 0.6325 µM) was 0.515, the relative viability (NCI-H322M; first compound 6.325 µM) was 0.525 and the relative viability (NCI-H322M; first compound 20 µM) was 0.34.
